According to US5133908A, “Process for the preparation of dispersible colloidal systems of a substance in the form of nanoparticles” (Centre National de la Recherche Scientifique (CNRS), priority 1986, dated 1992):

Legend:
[1] = test system: bovine serum albumin (BSA) nanoparticles; test: level of binding of active principle to BSA nanoparticles, ultracentrifugation; assay type: physicochemical; settings: for level of binding of the sodium salicylate to the nanoparticles: of the amount used
Experimental: (§1) Increasing amounts (from 0.25 g to 2.50 g) of sodium salicylate are added to nanoparticles prepared according to example 1 (HSA) or according to example 5 (BSA). The level of binding of the sodium salicylate to the nanoparticles, measured after ultracentrifugation, is 60% of the amount used, irrespective of the amount of active principle added.
(§2) The procedure uses as in example 1 (1 g of HSA) or of example 5 (1 g of BSA), but carried out in the presence of 0.50 g of sodium salicylate dissolved in phase 1. The mean size of the nanoparticles is 200 nm with a mean dispersion index of 0.5. The level of binding of the sodium salicylate to the nanoparticles, measured after ultracentrifugation, is 60% of the amount used.
(§3) 50 mg of doxorubicin hydrochloride are added to nanoparticles prepared according to example 1 (HSA) or according to example 5 (BSA). The level of binding of doxorubicin to the nanoparticles, measured after ultracentrifugation, is 90% of the quantity used.

[2] = test system: human serum albumin (HSA) nanoparticles; test: level of binding of active principle to HSA nanoparticles, ultracentrifugation; assay type: physicochemical; settings: for level of binding of the sodium salicylate to the nanoparticles: of the amount used
Experimental: as §1, §2, §3

Compound: COc1cccc2c1C(=O)c1c(O)c3c(c(O)c1C2=O)C[C@@](O)(C(=O)CO)C[C@@H]3O[C@H]1C[C@H](N)[C@H](O)[C@H](C)O1 [doxorubicin]
- level of binding of doxorubicin to the nanoparticles ([1]; BSA nanoparticles, of the quantity used, 50 mg doxorubicin hydrochloride added): 90%
- level of binding of doxorubicin to the nanoparticles ([2]; HSA nanoparticles, of the quantity used, 50 mg doxorubicin hydrochloride added): 90%

Compound: O=C([O-])c1ccccc1O.[Na+] [sodium salicylate]
- level of binding of the sodium salicylate to the nanoparticles ([1]; BSA nanoparticles, 0.25 g to 2.50 g added to formed nanoparticles, irrespective of amount): 60%
- level of binding of the sodium salicylate to the nanoparticles ([1]; BSA, 0.50 g dissolved in phase 1): 60%
- level of binding of the sodium salicylate to the nanoparticles ([2]; HSA nanoparticles, 0.25 g to 2.50 g added to formed nanoparticles, irrespective of amount): 60%
- level of binding of the sodium salicylate to the nanoparticles ([2]; HSA, 0.50 g dissolved in phase 1): 60%
